Assay results from patent US8907098B2, “Inhibitors of sphingosine kinase” (MERCK PATENT GmbH, priority 2009, dated 2014).

What follows are compounds tested against modified SphK1 (Homo sapiens, UniProt Q9NYA1) (assay: SphK1 biochemical kinase assay (384-well flashplate)). Settings: IC50 ranges; 5 nM modified SphK1, 1 μM ATP, 30° C., 120 min; read-out: SphK1 Inhibition IC50.
Sequence of modified SphK1 (Q9NYA1 whole entry): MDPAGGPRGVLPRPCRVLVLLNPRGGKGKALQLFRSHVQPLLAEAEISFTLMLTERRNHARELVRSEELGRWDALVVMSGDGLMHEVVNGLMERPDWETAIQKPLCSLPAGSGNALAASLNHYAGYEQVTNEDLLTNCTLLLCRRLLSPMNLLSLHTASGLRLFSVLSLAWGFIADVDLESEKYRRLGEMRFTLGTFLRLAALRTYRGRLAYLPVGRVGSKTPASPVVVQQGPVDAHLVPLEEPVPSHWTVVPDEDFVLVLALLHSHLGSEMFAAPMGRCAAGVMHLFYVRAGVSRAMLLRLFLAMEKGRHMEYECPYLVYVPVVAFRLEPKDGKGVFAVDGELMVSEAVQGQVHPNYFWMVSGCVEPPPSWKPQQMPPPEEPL
Protocol: The kinase assay is carried out as a 384-well flashplate assay.
5 nM modified SphK1, 800 nM omega-biotinyl-D-erythro-sphingosine and 1 μM ATP (with 0.3 μCi of ^33P-ATP/well) are incubated in a total volume of 50 μl (25 mM HEPES, 5 mM MgCl2, 1 mM dithiothreitol, 0.01% of Brij35, 0.1% of BSA (fatty acid-free), pH 7.4) without or with test substance (5-10 concentrations) at 30° C. for 120 min. The reaction is terminated using 25 μl of 200 mM EDTA solution, filtered off with suction at room temperature after 30 min, and the cavities are washed 3 times with 100 μl of 0.9% NaCl solution. The non-specific proportion of the kinase reaction (blank) is determined using 0.5 mM NaCl. Radioactivity is measured in topcount. IC50 values are calculated using RS1.
`CC1(C)CCC(C)(C)c2cc(-c3csc(N4CCC(NC[C@@H](O)CO)CC4)n3)ccc21` gave an IC50 of 100 to 1000 nM. `CC1(C)CCC(C)(C)c2cc(-c3csc(C4CCNC4)n3)ccc21` (stereo not drawn) [2-Pyrrolidin-3-yl-4-(5,5,8,8-tetramethyl-5,6,7,8-tetrahydronaphthalen-2-yl)thiazole] gave an IC50 of 100 to 1000 nM. `CC1(C)CCC(C)(C)c2cc(-c3csc(N4CCC(N5CCN(CCO)CC5)CC4)n3)ccc21` showed an IC50 of 100 to 1000 nM.
